According to patent US20220160680A1, “MICROORGANISM MIXTURES, MOLECULES DERIVED THEREFROM, AND METHODS OF USE THEREOF” (B. G. Negev Technologies and Applications Ltd., at …, priority 2018, published 2022):
“Also recorded” adds a separate entry of the source.

Assays:
[1] = test system: V. cholerae VC1 (WT) and MM920; assay: V. cholerae biofilm modulation (CLSM, crystal violet); assay type: cell-based, Vibrio cholerae; conditions: 900 nM CAI-1
Description: The various pathogenic indicator strains used in this study were V. cholerae strain MM920 (ACqsA AluxQ), Vibrio harveyi strain MM30 (LuxS, Tn5). To initiate biofilm formation, bacteria was grown in the absence of the V. cholerae autoinducer 1 (CAI1). In addition, the bacteria were grown in presence of: 900 nM CAI1 (Vibrio Cholerae MM920), 900 nM CAI1, 200 μM Tryptophol acetate and 200 μM Tyrosol acetate, and 200 μM Tryptophol acetate and 200 μM Tyrosol acetate.
Biofilms were grown under shaking conditions at 30° C. in 96-well plate (Thermo Scientific, Rochester, N.Y., USA). […] The stained cells were washed twice with PBS. Biofilm images were taken by CLSM (Plan-Apochromat 20×/0.8 M27, Zeiss LSM880, Germany).
For static biofilm assay, overnight cultures of V. cholerae strain MM920 was diluted 1:10 in fresh LB medium containing a final concentration of 100 μM from each Tryptophol acetate and Tyrosol acetate or DMSO (up to 1%) as control. […] One in absence of the V. cholerae autoinducer (CAI-1) and the other one in presence of 900 nM CAI-1. Biofilms were grown under non-shaking conditions at 37° C. in 96-well plate (Thermo Scientific, Rochester, N.Y., USA). […] The stained cells were washed twice with PBS. Biofilm images were taken by CLSM (Plan-Apochromat 20×/0.8 M27, Zeiss LSM880, Germany).
Biofilm matrixes of V. cholerae VC1 WT (FIGS. 23Ai and 23Aii), and the V. cholerae MM920 mutant (FIGS. 23Aiii and 23Aiv) were grown for 24 hours with or without tryptophol acetate in the growth medium, and stained using the BacLight® Dead/Live Kit to distinguish viable cells.

[2] = test system: Peritoneal macrophages; assay: In vitro LPS stimulation of peritoneal macrophages, cytokine ELISA (24 hr); assay type: cell-based, mice; conditions: 100 μM, 0.1 μg/ml LPS
Description: Peritoneal macrophages were harvested using the protocol as described previously (Zhang et al., 2008). Elicited macrophages were harvested from WT mice which had received a 2.5 ml intraperitoneal administration of 3% Brewer thioglycolate broth (Sigma, UK) 72 hr prior collection.
Peritoneal macrophages cells (5×10^5/ml) were cultured with 0.1 μg/ml Lipopolysaccharides (LPS-Escherichia coli serotype 0127:B8, Sigma-Aldrich) and in the presence of 100 μM: tryptophol acetate, tyrosol acetate, dopamine HCl, caffeic acid, or combination of tryptophol acetate and tyrosol acetate, for 24 hr. Following culture, supernatants were collected and stored at −20° C. for the detection of the IL-6 cytokine. For IL-la detection, the inventors induced macrophages lysis by adding fresh RPMI medium and thawing three times.
IL-la and IL-6 levels were measured in peritoneal exudate fluids and LPS-stimulated culture supernatants by ELISA. To detect the cytokines, a R&D ELISA kit (Catalog #MLA00 and DY406, respectively) was used as per the manufacturer's instructions. A standard curve was constructed using serial dilutions of purified IL-la or IL-6 starting at a concentration of 15 ng/ml.

SMILES | Biofilm of V. cholerae MM920, autoinducer alone [1] | Production of IL-6 [2]
CCCCCCCCCC(=O)[C@@H](O)CC [CAI-1, reference compound] | disruption of biofilm integrity | 
O=C(O)/C=C/c1ccc(O)c(O)c1 [caffeic acid] |  | comparable results; also recorded: dramatically reduced
